# Reference: patent EP4678638A1, “NEW E3 UBIQUITIN LIGASE LIGAND, PROTEIN DEGRADATION AGENT AND USE THEREOF” (priority 2023, dated 2024)
# Key:
# RSK1 = target: T1, RSK1 (Homo sapiens, UniProt Q15418); assay: Western blot degradation of RSK1 (hPBMC); type: cell-based; conditions: Table D8
# T1 construct: evaluate the effects of the compounds of the present disclosure on the expression of target proteins in cells; endogenous in cells; host or cells: hPBMC
# Method: (§1) Conventional Western blot assay was performed to evaluate the effects of the compounds of the present disclosure on the expression of target proteins in cells.
# (§2) (1) Cell Seeding and Protein Harvesting: The selected cells were processed according to the cell seeding procedure and protein harvesting procedure in Table III-2. Table III-2 Cell Seeding and Protein Harvesting Procedures
# (§3) (2) To the collected supernatant, 5X SDS sample loading buffer was added, followed by denaturation at 95°C for 5 minutes. The denatured samples were then separated by SDS-PAGE electrophoresis on a polyacrylamide gel. Proteins were transferred to a nitrocellulose membrane (0.45 µm NC membrane), blocked with blocking buffer at room temperature for 1 hour, and subjected to antibody incubation and development procedures according to the antibody manufacturer's instructions (Cell Signaling Technology).
# (§4) Half-Maximal Degradation Concentration value (the drug concentration required for degrading proteins by 50%, abbreviated as DC50) reads method: comparing the grayscale values of Western blot bands from drug-treated samples with those from blank DMSO-treated controls, and identifying the drug concentration range at which the grayscale value is half that of the DMSO-treated control bands.
# (§5) DC50 values can be calculated using ImageJ software to measure grayscale values of Western blot bands from drug-treated samples. The concentration-response curve is fitted to estimate the drug concentration corresponding to half the grayscale value.
# (§6) Target protein remaining (%) refers to the percentage of target protein remaining in hPBMC cells after treatment with protein degrader compounds.
# (§7) Calculation method for target protein remaining (%): Use ImageJ software to measure grayscale values of Western blot bands from drug (protein degrader)-treated samples. The grayscale value of drug-treated bands is divided by that of internal control protein bands, and the resulting quotient is normalized to obtain the relative percentage of remaining target protein after protein degrader treatment.
# (§8) Target protein degradation rate (%) = 100% - target protein remaining (%).
# RSK2 = target: T2, RSK2 (Homo sapiens, UniProt P51812); assay: Western blot degradation of RSK2 (hPBMC); type: cell-based; conditions: Table D8
# T2 construct: evaluate the effects of the compounds of the present disclosure on the expression of target proteins in cells; endogenous in cells; host or cells: hPBMC
# Method: as §1, §2, §3, §4, §5, §6, §7, §8
# T2 sequence (P51812 whole entry): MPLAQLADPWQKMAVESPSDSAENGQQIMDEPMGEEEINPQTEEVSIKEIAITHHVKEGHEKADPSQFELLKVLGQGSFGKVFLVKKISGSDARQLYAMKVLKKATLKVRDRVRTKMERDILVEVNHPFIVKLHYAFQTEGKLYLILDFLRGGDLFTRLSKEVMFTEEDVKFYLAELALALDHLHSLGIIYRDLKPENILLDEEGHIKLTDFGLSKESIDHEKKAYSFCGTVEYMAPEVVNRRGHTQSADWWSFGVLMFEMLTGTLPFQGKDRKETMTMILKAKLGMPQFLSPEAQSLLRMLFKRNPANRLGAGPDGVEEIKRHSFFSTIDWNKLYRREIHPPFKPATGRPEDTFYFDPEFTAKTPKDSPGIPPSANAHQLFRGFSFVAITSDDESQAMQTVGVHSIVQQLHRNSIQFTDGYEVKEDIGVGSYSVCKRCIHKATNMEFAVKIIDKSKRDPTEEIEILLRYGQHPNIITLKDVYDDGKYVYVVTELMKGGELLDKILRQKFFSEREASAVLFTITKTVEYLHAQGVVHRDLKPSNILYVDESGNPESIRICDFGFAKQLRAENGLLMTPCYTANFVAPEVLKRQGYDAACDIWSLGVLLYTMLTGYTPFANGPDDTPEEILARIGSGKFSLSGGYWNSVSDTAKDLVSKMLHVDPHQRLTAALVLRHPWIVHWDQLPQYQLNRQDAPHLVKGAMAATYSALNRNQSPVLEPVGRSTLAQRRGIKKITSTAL
# T1 sequence (Q15418 whole entry): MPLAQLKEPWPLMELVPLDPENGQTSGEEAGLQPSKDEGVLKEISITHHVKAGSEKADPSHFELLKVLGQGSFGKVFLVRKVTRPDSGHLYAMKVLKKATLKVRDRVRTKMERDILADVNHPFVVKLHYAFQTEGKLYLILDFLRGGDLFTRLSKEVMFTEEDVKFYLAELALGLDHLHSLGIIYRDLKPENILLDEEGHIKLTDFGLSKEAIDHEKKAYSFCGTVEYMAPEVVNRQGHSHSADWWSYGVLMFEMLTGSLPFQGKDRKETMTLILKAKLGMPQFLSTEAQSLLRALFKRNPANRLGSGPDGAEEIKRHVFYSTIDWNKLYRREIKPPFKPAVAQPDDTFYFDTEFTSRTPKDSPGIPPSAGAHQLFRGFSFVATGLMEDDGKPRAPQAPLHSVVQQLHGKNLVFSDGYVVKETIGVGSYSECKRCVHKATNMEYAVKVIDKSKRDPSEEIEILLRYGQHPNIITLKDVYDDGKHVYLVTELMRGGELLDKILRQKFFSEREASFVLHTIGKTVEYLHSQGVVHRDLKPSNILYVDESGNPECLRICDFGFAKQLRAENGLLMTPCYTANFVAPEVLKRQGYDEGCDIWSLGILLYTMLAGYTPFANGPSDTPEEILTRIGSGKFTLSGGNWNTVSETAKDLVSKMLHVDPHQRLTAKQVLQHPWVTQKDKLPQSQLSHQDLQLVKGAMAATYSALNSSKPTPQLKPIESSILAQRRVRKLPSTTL
SMILES,Degradation of substrate protein RSK1 (substrate protein remaining %) (RSK1),Degradation of substrate protein RSK2 (substrate protein remaining %) (RSK2)
"C[C@@H]1CNC(=O)c2cc3ccc(C(=O)Nc4cnn(Cc5ccc(N6CCC(N(C)Cc7cncc(N8CCC(=O)NC8=O)c7)CC6)cc5)c4)nc3n21 [GT-07945, (R)-N-(1-(4-(4-(((5-(2,4-dioxotetrahydropyrimidin-1(2H)-yl)pyridin-3-yl)methyl)(methyl)amino)piperidin-1-yl)benzyl)-1H-pyrazol-4-yl)-9-methyl-6-oxo-6,7,8,9-tetrahydropyrido[3',2':4,5]py rrolo[1,2-a]pyrazine-2-carboxamide]",A (A is defined as 0% ≤ substrate protein remaining % ≤ 80%),A (A is defined as 0% ≤ substrate protein remaining % ≤ 80%)
"C[C@@H]1CNC(=O)c2cc3ccc(C(=O)Nc4cnn(Cc5ccc(N6CCC(N7CCN(Cc8cc(N9CCC(=O)NC9=O)ncc8F)CC7)CC6)cc5)c4)nc3n21 [GT-07957, (R)-N-(1-(4-(4-(4-((2-(2,4-dioxotetrahydropyrimidin-1(2H)-yl)-5-fluoropyridin-4-yl)methyl)piperazin-1-yl)piperidin-1-yl)benzyl)-1H-pyrazol-4-yl)-9-methyl-6-oxo-6,7,8,9-tetrahydropyrido[3',2':4,5]pyrrolo[1,2-a]pyrazine-2-carboxamide]",A (A is defined as 0% ≤ substrate protein remaining % ≤ 80%),A (A is defined as 0% ≤ substrate protein remaining % ≤ 80%)
"C[C@@H]1CNC(=O)c2cc3ccc(C(=O)Nc4cnn(Cc5ccc(N6CCC(N7CCN(Cc8ccc(C9CCC(=O)NC9=O)cc8)CC7)CC6)cc5)c4)nc3n21 (stereo partly drawn) [GT-07951, (9R)-N-(1-(4-(4-(4-(4-(2,6-dioxopiperidin-3-yl)benzyl)piperazin-1-yl)piperidin-1-yl)benzyl)-1H-pyrazol-4-yl)-9-methyl-6-oxo-6,7,8,9-tetrahydropyrido[3',2':4,5]py rrolo[1,2-a]pyrazine-2-carboxamide]",A (A is defined as 0% ≤ substrate protein remaining % ≤ 80%),A (A is defined as 0% ≤ substrate protein remaining % ≤ 80%)
"C[C@@H]1CNC(=O)c2cc3ccc(C(=O)Nc4cnn(Cc5ccc(N6CCC(N(C)Cc7ccc(N8CCC(=O)NC8=O)cn7)CC6)cc5)c4)nc3n21 [GT-07940, (R)-N-(1-(4-(4-(((5-(2,4-dioxotetrahydropyrimidin-1(2H)-yl)pyridin-2-yl)methyl)(methyl)amino)piperidin-1-yl)benzyl)-1H-pyrazol-4-yl)-9-methyl-6-oxo-6,7,8,9-tetrahydropyrido[3',2':4,5]py rrolo[1,2-a]pyrazine-2-carboxamide]",A (A is defined as 0% ≤ substrate protein remaining % ≤ 80%),A (A is defined as 0% ≤ substrate protein remaining % ≤ 80%)
"C[C@@H]1CNC(=O)c2cc3ccc(C(=O)Nc4cnn(Cc5ccc(N6CCN(Cc7cncc(C8CCC(=O)NC8=O)c7)CC6)cc5)c4)nc3n21 (stereo partly drawn) [GT-07934, (9R)-N-(1-(4-(4-((5-(2,6-dioxopiperidin-3-yl)pyridin-3-yl)methyl)piperazin-1-yl)benzyl)-1H-pyrazol-4-yl)-9-methyl-6-oxo-6,7,8,9-tetrahydropyrido[3',2':4,5]py rrolo[1,2-a]pyrazine-2-carboxamide]",A (A is defined as 0% ≤ substrate protein remaining % ≤ 80%),B (B is defined as substrate protein remaining % > 80%)
"C[C@@H]1CNC(=O)c2cc3ccc(C(=O)Nc4cnn(Cc5ccc(N6CCC(N(C)Cc7cccc(N8CCC(=O)NC8=O)c7)CC6)cc5)c4)nc3n21 [GT-07939, (R)-N-(1-(4-(4-((3-(2,4-dioxotetrahydropyrimidin-1(2H)-yl)benzyl)(methyl)amino)piperidin-1-yl)benzyl)-1H-pyrazol-4-yl)-9-methyl-6-oxo-6,7,8,9-tetrahydropyrido[3',2':4,5]py rrolo[1,2-a]pyrazine-2-carboxamide]",A (A is defined as 0% ≤ substrate protein remaining % ≤ 80%),B (B is defined as substrate protein remaining % > 80%)
"C[C@@H]1CNC(=O)c2cc3ccc(C(=O)Nc4cnn(Cc5ccc(N6CCN(Cc7cc(N8CCC(=O)NC8=O)cnc7F)CC6)cc5)c4)nc3n21 [GT-07935, (R)-N-(1-(4-(4-((5-(2,4-dioxotetrahydropyrimidin-1(2H)-yl)-2-fluoropyridin-3-yl)methyl)piperazin-1-yl)benzyl)-1H-pyrazol-4-yl)-9-methyl-6-oxo-6,7,8,9-tetrahydropyrido[3',2':4,5]py rrolo[1,2-a]pyrazine-2-carboxamide]",A (A is defined as 0% ≤ substrate protein remaining % ≤ 80%),B (B is defined as substrate protein remaining % > 80%)
"C[C@@H]1CNC(=O)c2cc3ccc(C(=O)Nc4cnn(Cc5ccc(N6CCC(N7CCN(Cc8cccc(NC9CCC(=O)NC9=O)c8)CC7)CC6)cc5)c4)nc3n21 (stereo partly drawn) [GT-07956, (9R)-N-(1-(4-(4-(4-(3-((2,6-dioxopiperidin-3-yl)amino)benzyl)piperazin-1-yl)piperidin-1-yl)benzyl)-1H-pyrazol-4-yl)-9-methyl-6-oxo-6,7,8,9-tetrahydropyrido[3',2':4,5]pyrrolo[1,2-a]pyrazine-2-carboxamide]",A (A is defined as 0% ≤ substrate protein remaining % ≤ 80%),A (A is defined as 0% ≤ substrate protein remaining % ≤ 80%)
"C[C@@H]1CNC(=O)c2cc3ccc(C(=O)Nc4cnn(Cc5ccc(N6CCC(N(C)Cc7cc(N8CCC(=O)NC8=O)cnc7F)CC6)cc5)c4)nc3n21 [GT-07949, (R)-N-(1-(4-(4-(((5-(2,4-dioxotetrahydropyrimidin-1(2H)-yl)-2-fluoropyridin-3-yl)methyl)(methyl)amino)piperidin-1-yl)benzyl)-1H-pyrazol-4-yl)-9-methyl-6-oxo-6,7,8,9-tetrahydropyrido[3',2':4,5]py rrolo[1,2-a]pyrazine-2-carboxamide]",A (A is defined as 0% ≤ substrate protein remaining % ≤ 80%),A (A is defined as 0% ≤ substrate protein remaining % ≤ 80%)
"C[C@@H]1CNC(=O)c2cc3ccc(C(=O)Nc4cnn(Cc5ccc(N6CCN(Cc7ccc(N8CCC(=O)NC8=O)cc7)CC6)cc5)c4)nc3n21 [GT-07927, (R)-N-(1-(4-(4-(4-(2,4-dioxotetrahydropyrimidin-1(2H)-yl)benzyl)piperazin-1-yl)benzyl)-1H-pyrazol-4-yl)-9-methyl-6-oxo-6,7,8,9-tetrahydropyrido[3',2':4,5]py rrolo[1,2-a]pyrazine-2-carboxamide]",A (A is defined as 0% ≤ substrate protein remaining % ≤ 80%),A (A is defined as 0% ≤ substrate protein remaining % ≤ 80%)
"C[C@@H]1CNC(=O)c2cc3ccc(C(=O)Nc4cnn(Cc5ccc(N6CCN(Cc7cc(C8CCC(=O)NC8=O)cnc7F)CC6)cc5)c4)nc3n21 (stereo partly drawn) [GT-07932, (9R)-N-(1-(4-(4-((5-(2,6-dioxopiperidin-3-yl)-2-fluoropyridin-3-yl)methyl)piperazin-1-yl)benzyl)-1H-pyrazol-4-yl)-9-methyl-6-oxo-6,7,8,9-tetrahydropyrido[3',2':4,5]py rrolo[1,2-a]pyrazine-2-carboxamide]",A (A is defined as 0% ≤ substrate protein remaining % ≤ 80%),B (B is defined as substrate protein remaining % > 80%)
"C[C@@H]1CNC(=O)c2cc3ccc(C(=O)Nc4cnn(Cc5ccc(N6CCC(N(C)Cc7cc(N8CCC(=O)NC8=O)ncc7F)CC6)cc5)c4)nc3n21 [GT-07943, (R)-N-(1-(4-(4-(((2-(2,4-dioxotetrahydropyrimidin-1(2H)-yl)-5-fluoropyridin-4-yl)methyl)(methyl)amino)piperidin-1-yl)benzyl)-1H-pyrazol-4-yl)-9-methyl-6-oxo-6,7,8,9-tetrahydropyrido[3',2':4,5]py rrolo[1,2-a]pyrazine-2-carboxamide]",A (A is defined as 0% ≤ substrate protein remaining % ≤ 80%),A (A is defined as 0% ≤ substrate protein remaining % ≤ 80%)
"C[C@@H]1CNC(=O)c2cc3ccc(C(=O)Nc4cnn(Cc5ccc(N6CCC(N7CCN(Cc8ccnc(N9CCC(=O)NC9=O)c8)CC7)CC6)cc5)c4)nc3n21 [GT-07958, (R)-N-(1-(4-(4-(4-((2-(2,4-dioxotetrahydropyrimidin-1(2H)-yl)pyridin-4-yl)methyl)piperazin-1-yl)piperidin-1-yl)benzyl)-1H-pyrazol-4-yl)-9-methyl-6-oxo-6,7,8,9-tetrahydropyrido[3',2':4,5]pyrrolo[1,2-a]pyrazine-2-carboxamide]",A (A is defined as 0% ≤ substrate protein remaining % ≤ 80%),A (A is defined as 0% ≤ substrate protein remaining % ≤ 80%)
